Data: US20170275270A1, “BENZYL SUBSTITUTED INDAZOLES” (Bayer Pharma Aktiengesellschaft, priority 2014, published 2017)
Counter-ions that a name gives are not always drawn. Like-named read-outs stand apart in the source and are kept apart here.

Legend:
[1] = molecular target: T1, catalytic domain of human Bub1 (amino acids 704-1085) (Homo sapiens, UniProt O43683); experiment: Bub1 kinase assay (TR-FRET); format: biochemical
T1 construct: catalytic domain of human Bub1 (amino acids 704-1085); His6 (N); made in house; host or cells: Hi5 insect cells
Procedure, shortened: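 TR-FRET read-out (Eu-anti-mouse IgG/anti-phosphoserine antibody to streptavidin-XL665 on biotinylated peptide) after EDTA stop and 1 h complex formation at 22° C. Kinase reaction ran 60 min at 22° C with 1:3.4 serial dilutions from 2 mM DMSO stocks. IC50 from 4-parameter logistic fit of normalized inhibition.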

[2] = molecular target: Bub1 (Homo sapiens, UniProt O43683); experiment: Formation-Assay: phosphorylation status of histone 2A by inhibition of kinase activity of Bub1; format: cell-based; settings: Biological Assay 4.1: H2A Formation IC50, co-treatment with Nocodazole 1 μg/ml, 16 h
Experimental: Biological Assay 4.1: Formation-Assay
Cell-Based Mechanistic Assay: Changes of Phosphorylation Status of Histone 2A by Inhibition of Kinase Activity of Bub1
This assay determines the suppression of histone 2A phosphorylation by a Bub1 kinase inhibitor during co-treatment with Nocodazole. 25000 cells (cells were ordered from ATCC) were seeded in 96 well plate for 5 h at 37° C. Cells were treated with Nocodazole (1 μg/ml) and varying concentrations (between 3 nM and 10 μM) of test compounds for 16 h. Cells were fixed (20 min, Fixing solution R&D), washed three times with PBS and blocked with Odyssey blocking buffer before incubating with the primary antibody against phosphorylated H2A (5 μg/ml ABIN482721) overnight at 2-8° C. After washing, secondary IRDye-labeled antibody mix with cell stains was added for 1 h and washed again with PBS. Plates were scanned with LiCor Odyssey Infrared Imager CLx at 800 nm for P-H2A and at 700 nm for cell stains Draq5/Sapphire. The quotient of 800 nm and 700 nm for Nocodazole only treated cells was set as 100% and the quotient of 800 nm and 700 nm of untreated cells was set as 0%.
Histone H2A is an immediate intracellular substrate of Bub1 kinase. Determination of the phosphorylation status of Histone H2A provides a direct measure of the intracellular activity of Bub1 kinase.

[3] = system: HeLa; experiment: Proliferation assay (HeLa cell line); settings: Homo sapiens, 96 h, read-out: Biological Assay 2: Proliferation assay (HeLa cell line) median IC50;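 note: crystal violet staining of cell number, scaled between a plate stained before dosing (0%) and cells left untreated (100%), compounds tested at 0.001-10 µM, IC50 via 4-parameter fit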
[4] = system: HeLa human cervical tumor cells; experiment: Proliferation assay (HeLa+Paclitaxel); settings: read-out: Biological Assay 3: HeLa + Paclitaxel IC50, 3 nM paclitaxel, crystal violet;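 note: compounds at 0.001-10 µM added 4 h after paclitaxel, 92 h exposure, absorbance normalized to zero-point plate (0%) and untreated cells (100%), IC50 from 4-parameter fit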
[5] = Biological Assay 1: Bub1 kinase assay median IC50, 10 μM ATP
[6] = 10 μM ATP, read-out: Biological Assay 1: Bub1 kinase assay median IC50

T1 sequence (O43683 704-1085): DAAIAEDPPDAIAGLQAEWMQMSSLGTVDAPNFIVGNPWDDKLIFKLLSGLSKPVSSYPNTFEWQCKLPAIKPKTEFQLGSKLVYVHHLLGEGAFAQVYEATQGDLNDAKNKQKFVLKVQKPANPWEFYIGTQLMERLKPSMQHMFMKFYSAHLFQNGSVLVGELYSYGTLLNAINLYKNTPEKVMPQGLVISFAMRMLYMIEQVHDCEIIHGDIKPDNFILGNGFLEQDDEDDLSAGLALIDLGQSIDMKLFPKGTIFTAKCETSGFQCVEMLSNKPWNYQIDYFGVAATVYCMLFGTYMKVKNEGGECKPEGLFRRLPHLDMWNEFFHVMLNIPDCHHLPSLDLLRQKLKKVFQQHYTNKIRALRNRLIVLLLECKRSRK
Sequence of Bub1 (O43683 whole entry): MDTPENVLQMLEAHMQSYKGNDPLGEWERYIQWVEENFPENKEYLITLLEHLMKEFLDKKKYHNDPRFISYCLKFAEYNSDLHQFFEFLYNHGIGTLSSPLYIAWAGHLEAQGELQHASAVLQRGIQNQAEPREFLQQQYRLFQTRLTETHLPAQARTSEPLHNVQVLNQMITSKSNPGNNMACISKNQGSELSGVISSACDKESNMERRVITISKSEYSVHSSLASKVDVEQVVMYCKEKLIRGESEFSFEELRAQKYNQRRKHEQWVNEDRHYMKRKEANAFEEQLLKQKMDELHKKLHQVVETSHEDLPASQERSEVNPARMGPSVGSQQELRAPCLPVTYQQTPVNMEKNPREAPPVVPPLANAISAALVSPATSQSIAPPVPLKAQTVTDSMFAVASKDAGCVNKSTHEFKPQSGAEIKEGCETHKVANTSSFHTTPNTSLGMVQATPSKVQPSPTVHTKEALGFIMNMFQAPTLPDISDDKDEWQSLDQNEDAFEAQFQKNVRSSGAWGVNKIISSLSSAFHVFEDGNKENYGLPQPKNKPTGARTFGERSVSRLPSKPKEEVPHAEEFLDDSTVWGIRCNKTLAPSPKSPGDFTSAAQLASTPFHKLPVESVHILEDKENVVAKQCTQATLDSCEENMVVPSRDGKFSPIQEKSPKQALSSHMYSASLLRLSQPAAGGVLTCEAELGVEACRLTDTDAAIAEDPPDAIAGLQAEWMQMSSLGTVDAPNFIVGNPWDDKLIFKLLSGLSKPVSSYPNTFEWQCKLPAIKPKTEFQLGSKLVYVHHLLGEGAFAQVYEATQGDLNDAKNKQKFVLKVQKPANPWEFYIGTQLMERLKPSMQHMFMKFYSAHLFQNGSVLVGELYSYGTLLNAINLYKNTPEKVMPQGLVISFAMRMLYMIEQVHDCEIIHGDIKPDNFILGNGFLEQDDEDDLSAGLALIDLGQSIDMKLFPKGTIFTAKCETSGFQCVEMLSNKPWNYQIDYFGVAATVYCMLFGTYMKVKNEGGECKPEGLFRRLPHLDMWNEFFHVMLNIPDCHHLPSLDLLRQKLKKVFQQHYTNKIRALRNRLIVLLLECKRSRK

SMILES | IC50 [1, 5] [nM] | IC50 [2] [nM] | IC50 [3] [nM] | IC50 [1, 6] [nM] | IC50 [4] [nM]
CCOc1cc(F)c(Cn2nc(-c3ncc(CCS(C)(=O)=O)c(Nc4ccncc4)n3)c3ccccc32)c(F)c1 [Example 2-3-1, 2-[1-(4-ethoxy-2,6-difluorobenzyl)-1H-indazol-3-yl]-5-[2-(methylsulfonyl)ethyl]-N-(eparate-4-yl)pyrimidin-4-amine] | 6.1 | 2300 | 3500 |  | 
CCOc1cc(F)c(Cn2nc(-c3ncc(CCCS(C)(=O)=O)c(Nc4ccncc4)n3)c3ccccc32)c(F)c1 [Example 2-3-2, 2-[1-(4-ethoxy-2,6-difluorobenzyl)-1H-indazol-3-yl]-5-[3-(methylsulfonyl)propyl]-N-(pyridin-4-yl)pyrimidin-4-amine] | 9 | 990 | 2800 |  | 
CC(=O)Nc1cc(Nc2nc(-c3nn(Cc4c(F)cc(OCCO)cc4F)c4ccccc34)nc3c2CCC3)ccn1 [Example 2-4-6, N-{4-[(2-{1-[2,6-difluoro-4-(2-hydroxyethoxy)benzyl]-1H-indazol-3-yl}-6,7-dihydro-5H-cyclopenta[d]pyrimidin-4-yl)amino]pyridin-2-yl}acetamide] | 9.9 | 130 | 2100 |  | 
Cc1nccc(Nc2nc(-c3nn(Cc4c(F)cc(OCCO)cc4F)c4ccccc34)ncc2C2CCN(CC(F)F)CC2)n1 [Example 2-6-17, 2-{4-[(3-{5-[1-(2,2-difluoroethyl)piperidin-4-yl]-4-[(2-methylpyrimidin-4-yl)amino]pyrimidin-2-yl}-1H-indazol-1-yl)methyl]-3,5-difluorophenoxy} ethanol] | 58 | 6 | 6800 |  | 
CCOc1cc(F)c(Cn2nc(-c3ncc(C4CNC4)c(Nc4ccncc4)n3)c3ccccc32)c(F)c1 [Example 2-9-1, 5-(azetidin-3-yl)-2-[1-(4-ethoxy-2,6-difluorobenzyl)-1H-indazol-3-yl]-N-(pyridin-4-yl)pyrimidin-4-amine, salt with hydrochloric acid] |  | 17 | 1300 | 9.4 | 
CCOc1cc(F)c(Cn2nc(-c3nc4c(c(Nc5ccnc(C(F)(F)F)c5)n3)CNCC4)c3ccccc32)c(F)c1 [Example 2-9-17, 2-[1-(4-ethoxy-2,6-difluorobenzyl)-1H-indazol-3-yl]-N-[2-(trifluorometh-yl)pyridin-4-yl]-5,6,7,8-tetrahydro-pyrido[4,3-d]pyr-imidin-4-amine] |  | 2 | 2100 |  | 130
CCOc1cc(F)c(Cn2nc(-c3nc(C)cc(Nc4ccncc4C(N)=O)n3)c3ccccc32)c(F)c1 [Example 2-10-2, 4-({2-[1-(4-ethoxy-2,6-difluorobenzyl)-1H-indazol-3-yl]-6-methylpyrimidin-4-yl}amino)pyridine-3-carboxamide] |  | 140 |  | 5.5 | 
CCOc1cc(F)c(Cn2nc(-c3ncc(C4CCN(CC(F)F)CC4)c(Nc4ccncc4OC)n3)c3ccccc32)c(F)c1 [Example 2-11-5, 5-[1-(2,2-difluoroethyl)piper-idin-4-yl]-2-[1-(4-ethoxy-2,6-difluorobenzyl)-1H-indazol-3-yl]-N-(3-methoxypyridin-4-yl)pyrimidin-4-amine] | 23 | 8.3 | 1700 |  | 
CCOc1cc(F)c(Cn2nc(-c3nc4c(c(Nc5ccnc(NC(C)=O)c5)n3)CC(C)(C)CC4)c3ccccc32)c(F)c1 [Example 2-12-69, N-[4-({2-[1-(4-ethoxy-2,6-difluorobenzyl)-1H-indazol-3-yl]-6,6-dimethyl-5,6,7,8-tetrahydroquinazolin-4-yl}amino)pyridin-2-yl]acetamide] | 8.8 |  | 8500 |  | 170
CCOc1cc(F)c(Cn2nc(-c3nc(C)cc(Nc4ccncc4OC(F)(F)F)n3)c3ccccc32)c(F)c1 [Example 2-12-79, 2-[1-(4-ethoxy-2,6-difluorobenzyl)-1H-indazol-3-yl]-6-methyl-N-[3-(trifluoromethoxy)pyr-idin-4-yl]pyrimidin-4-amine] |  |  | > 10000 | 5.6 | 1900
CCOc1cc(F)c(Cn2nc(-c3nc(Nc4cc(C)ncc4C)cc(C(F)(F)F)n3)c3ccccc32)c(F)c1 [Example 2-12-82, N-(2,5-dimethylpyridin-4-yl)-2-[1-(4-ethoxy-2,6-difluorobenzyl)-1H-indazol-3-yl]-6-(trifluoromethyl)pyr-imidin-4-amine] |  | 30 |  | > 20000 | 
CCOc1cc(F)c(Cn2nc(-c3nc(Nc4ccncn4)cc(C4CCOCC4)n3)c3ccccc32)c(F)c1 [Example 2-12-92, 2-[1-(4-ethoxy-2,6-difluorobenzyl)-1H-indazol-3-yl]-N-(pyrimidin-4-yl)-6-(tetrahydro-2H-pyran-4-yl)pyrimidin-4-amine] | 20 |  | 2700 |  | 280
CCOc1cc(F)c(Cn2nc(-c3ncc(OCC(=O)N4CC(F)(F)C4)c(Nc4ccncc4)n3)c3ccccc32)c(F)c1 [Example 3-5-1, 1-(3,3-difluoroazetidin-1-yl)-2-({2-[1-(4-ethoxy-2,6-difluorobenzyl)-1H-indazol-3-yl]-4-(pyridin-4-ylamino)pyrimidin-5-yl}oxy)ethanone, reference compound] | 8 | 360 | 3900 |  | 

Continued, values first:

IC50 [1, 5] [nM] | IC50 [2] [nM] | IC50 [3] [nM] | IC50 [1, 6] [nM] | IC50 [4] [nM] | SMILES
30 |  | > 10000 |  | > 10000 | CCOc1cc(F)c(Cn2nc(-c3nc(Nc4ccnc(C)n4)cc(-c4ccn(C)n4)n3)c3ccccc32)c(F)c1 [Example 2-12-93, 2-[1-(4-ethoxy-2,6-difluorobenzyl)-1H-indazol-3-yl]-6-(1-methyl-1H-pyrazol-3-yl)-N-(2-methylpyrimidin-4-yl)pyrimidin-4-amine]
9.7 |  | 3900 |  | 2300 | CCOc1cc(F)c(Cn2nc(-c3nc(Nc4ccncc4OC)cc(-c4ccn(C)n4)n3)c3ccccc32)c(F)c1 [Example 2-12-94, 2-[1-(4-ethoxy-2,6-difluorobenzyl)-1H-indazol-3-yl]-N-(3-methoxypyridin-4-yl)-6-(1-methyl-1H-pyrazol-3-yl)pyrimidin-4-amine]
26 |  | > 10000 |  | 9800 | CCOc1cc(F)c(Cn2nc(-c3nc(Nc4ccncn4)cc(-c4nccs4)n3)c3ccccc32)c(F)c1 [Example 2-12-95, 2-[1-(4-ethoxy-2,6-difluorobenzyl)-1H-indazol-3-yl]-N-(pyrimidin-4-yl)-6-(1,3-thiazol-2-yl)pyrimidin-4-amine]
 |  | 3000 | 5.2 | 250 | CCOc1cc(F)c(Cn2nc(-c3nc4c(c(Nc5ccncc5C(F)(F)F)n3)CCC4)c3ccccc32)c(F)c1 [Example 2-14-3, 2-[1-(4-ethoxy-2,6-difluorobenzyl)-1H-indazol-3-yl]-N-[3-(trifluoromethyl)pyridin-4-yl]-6,7-dihydro-5H-cyclopenta[d]pyrimidin-4-amine]
66 |  | > 10000 |  | > 10000 | CCOc1cc(F)c(Cn2nc(-c3nc4c(c(Nc5ccncc5C(=O)O)n3)CCC4)c3ccccc32)c(F)c1 [Example 2-14-9, 4-({2-[1-(4-ethoxy-2,6-difluorobenzyl)-1H-indazol-3-yl]-6,7-dihydro-5H-cyclopenta[d]pyrimidin-4-yl}amino)pyridine-3-carboxylic acid]
8.6 |  | > 10000 |  | 69 | CCOc1cc(F)c(Cn2nc(-c3nc4c(c(Nc5ccncc5)n3)CN(CC)CC4)c3ccccc32)c(F)c1 [Example 2-15-1, 2-[1-(4-ethoxy-2,6-difluorobenzyl)-1H-indazol-3-yl]-6-ethyl-N-(pyridin-4-yl)-5,6,7,8-tetrahydropyrido[4,3-d]pyrimidin-4-amine]
 |  | 3500 | 7.7 | 150 | CCOc1cc(F)c(Cn2nc(-c3nc(CN4CCCCC4)cc(Nc4ccncc4)n3)c3ccccc32)c(F)c1 [Example 2-15-7, 2-[1-(4-ethoxy-2,6-difluorobenzyl)-1H-indazol-3-yl]-6-(piperidin-1-ylmethyl)-N-(pyridin-4-yl)pyrimidin-4-amine]
31 |  | 1200 |  | 68 | COCCOc1cc(F)c(Cn2nc(-c3ncc(C4CCN(CC5CC5)CC4)c(Nc4ccnc(C)n4)n3)c3ccccc32)c(F)c1 [Example 2-20-12, 5-[1-(cyclopropylmethyl)piperidin-4-yl]-2-{1-[2,6-difluoro-4-(2-methoxyethoxy)benzyl]-1H-indazol-3-yl}-N-(2-methylpyrimidin-4-yl)pyrimidin-4-amine]
